According to patent US20250195521A1 (Revolution Medicines, Inc., priority 2020, published 2025):
Where two headings read alike, the source gives them in different places.

Key:
KRAS G13D = KRAS G13D (Homo sapiens (Human), UniProt P01116+P62937, G13D); assay: Ras-Raf disruption/FRET/MOA assay (BRAF RBD, Cyclophilin A); assay type: biochemical; details: read-out: KRAS G13D FRET data IC50
Protocol: (§1) Compound is present in plate wells as a 10-point 3-fold dilution series starting at a final concentration of 30 μM. After incubation at 25° C. for 3 hours, a mixture of Anti-His Eu—W1024 and anti-GST allophycocyanin is then added to assay sample wells at final concentrations of 10 nM and 50 nM, respectively, and the reaction incubated for an additional 1.5 hours. […] Compounds that facilitate disruption of a Ras: RAF complex are identified as those eliciting a decrease in the TR-FRET ratio relative to DMSO control wells.
(§2) Disruption of B-Raf Ras-Binding Domain (BRAF^RBD) Interaction with K-Ras by Compounds of the Invention (Also Called a FRET Assay or an MOA Assay)
(§3) Note—The following protocol describes a procedure for monitoring disruption of K-Ras G12C (GMP-PNP) binding to BRAF^RBD by a compound of the invention. This protocol may also be executed substituting other Ras proteins or nucleotides.
(§4) The purpose of this biochemical assay was to measure the ability of test compounds to facilitate ternary complex formation between a nucleotide-loaded K-Ras isoform and Cyclophilin A; the resulting ternary complex disrupts binding to a BRAF^RBD construct, inhibiting K-Ras signaling through a RAF effector. Data is reported as IC50 values.
(§5) In assay buffer containing 25 mM HEPES pH 7.3, 0.002% Tween20, 0.1% BSA, 100 mM NaCl and 5 mM MgCl2, tagless Cyclophilin A, His6-K-Ras-GMPPNP, and GST-BRAF^RBD were combined in a 384-well assay plate at final concentrations of 25 μM, 12.5 nM and 50 nM, respectively. Compound was present in plate wells as a 10-point 3-fold dilution series starting at a final concentration of 30 μM. After incubation at 25° C. for 3 hours, a mixture of Anti-His Eu—W1024 and anti-GST allophycocyanin was then added to assay sample wells at final concentrations of 10 nM and 50 nM, respectively, and the reaction incubated for an additional 1.5 hours. […] Compounds that facilitate disruption of a K-Ras: RAF complex were identified as those eliciting a decrease in the TR-FRET ratio relative to DMSO control wells.

NRAS G12C = NRAS G12C (Homo sapiens (Human), UniProt P01111+P62937, G12C); assay: as above; assay type: biochemical; details: read-out: NRAS G12C FRET data IC50
Chain of NRAS G12C (P01111 whole entry G12C): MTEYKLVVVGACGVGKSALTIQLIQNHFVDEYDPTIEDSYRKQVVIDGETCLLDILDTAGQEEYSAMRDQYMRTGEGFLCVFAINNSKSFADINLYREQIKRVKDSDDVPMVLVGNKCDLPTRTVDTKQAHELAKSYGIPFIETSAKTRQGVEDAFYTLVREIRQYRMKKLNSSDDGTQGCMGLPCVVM
Chain of NRAS G12C (P62937 whole entry): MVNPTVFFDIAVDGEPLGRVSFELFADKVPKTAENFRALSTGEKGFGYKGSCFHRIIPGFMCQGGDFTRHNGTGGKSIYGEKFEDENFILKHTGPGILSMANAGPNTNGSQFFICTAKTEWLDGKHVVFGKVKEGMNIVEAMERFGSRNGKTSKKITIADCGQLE
Protocol: as §1, §2, §3, §4, §5

NCI-H358 (K-Ras G12C) = assay: CellTiter-Glo cell viability assay, NCI-H358; assay type: cell-based, human
Summary of the method: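 Luminescent CellTiter-Glo read-out on day 5 after compound exposure; signal expressed as percent of mean DMSO control; four-parameter logistic fit gives the value.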

[1] = test system: K-Ras G12C (NCI-H358 cells); assay: Potency assay: pERK in NCI-H358 cells; assay type: cell-based, human; details: read-out: pERK EC50 (H358 KRAS G12C)
Summary of the method: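 Cells plated the day before were exposed for 4 h at 37° C, 5% CO2 to a 10-point, 3-fold DMSO dilution series (10 mM top stock), in duplicate. Phospho-ERK was read by AlphaLISA SureFire Ultra or by In-Cell Western with DRAQ5 DNA stain, and IC50 came from a 4-parameter sigmoidal fit.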

KRAS G12S = KRAS G12S (Homo sapiens (Human), UniProt P01116+P62937, G12S); assay: Ras-Raf disruption/FRET/MOA assay (BRAF RBD, Cyclophilin A); assay type: biochemical; details: read-out: KRAS G12S FRET IC50
Chain of KRAS G12S (P01116 other isoform, or with tags, fused parts or gaps G12S): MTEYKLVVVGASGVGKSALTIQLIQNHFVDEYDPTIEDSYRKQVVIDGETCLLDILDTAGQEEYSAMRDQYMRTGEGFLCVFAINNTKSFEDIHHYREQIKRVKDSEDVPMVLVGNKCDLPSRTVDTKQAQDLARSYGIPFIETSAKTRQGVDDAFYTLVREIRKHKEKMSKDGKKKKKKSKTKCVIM
Chain of KRAS G12S (P62937 whole entry): as the sequence (P62937 whole entry) above
Protocol: as §1, §2, §3, §4, §5

KRAS G12D = KRAS G12D (Homo sapiens (Human), UniProt P01116+P62937, G12D); assay: as above; assay type: biochemical; details: read-out: KRAS G12D FRET IC50
Chain of KRAS G12D (P01116 other isoform, or with tags, fused parts or gaps G12D): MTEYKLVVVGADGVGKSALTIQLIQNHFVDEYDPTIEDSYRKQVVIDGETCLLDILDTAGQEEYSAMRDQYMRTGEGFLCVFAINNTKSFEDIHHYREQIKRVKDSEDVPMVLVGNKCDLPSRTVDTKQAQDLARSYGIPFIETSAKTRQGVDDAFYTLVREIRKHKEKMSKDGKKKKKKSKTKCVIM
Chain of KRAS G12D (P62937 whole entry): as the sequence (P62937 whole entry) above
Protocol: as §1, §2, §3, §4, §5

KRAS G13C = KRAS G13C (Homo sapiens (Human), UniProt P01116+P62937, G13C); assay: as above; assay type: biochemical; details: read-out: KRAS G13C FRET IC50
Chain of KRAS G13C (P01116 other isoform, or with tags, fused parts or gaps G13C): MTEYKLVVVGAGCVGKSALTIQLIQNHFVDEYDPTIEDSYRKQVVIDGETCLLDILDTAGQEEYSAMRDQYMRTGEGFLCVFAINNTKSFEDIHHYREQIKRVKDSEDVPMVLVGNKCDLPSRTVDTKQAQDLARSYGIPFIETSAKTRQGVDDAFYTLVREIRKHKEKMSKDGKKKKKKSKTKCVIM
Chain of KRAS G13C (P62937 whole entry): as the sequence (P62937 whole entry) above
Protocol: as §1, §2, §3, §4, §5

KRAS WT = KRAS WT (Homo sapiens (Human), UniProt P01116+P62937); assay: as above; assay type: biochemical; details: read-out: KRAS WT FRET data IC50
Chain of KRAS WT (P01116 other isoform, or with tags, fused parts or gaps): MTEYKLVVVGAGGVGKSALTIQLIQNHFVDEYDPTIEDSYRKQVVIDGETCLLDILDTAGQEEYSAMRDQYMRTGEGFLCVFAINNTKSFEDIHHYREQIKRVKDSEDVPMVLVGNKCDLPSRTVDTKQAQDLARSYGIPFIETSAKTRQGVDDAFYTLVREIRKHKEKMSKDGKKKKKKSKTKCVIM
Chain of KRAS WT (P62937 whole entry): as the sequence (P62937 whole entry) above
Protocol: as §1, §2, §3, §4, §5

KRAS G12V = KRAS G12V (Homo sapiens (Human), UniProt P01116+P62937, G12V); assay: as above; assay type: biochemical; details: read-out: KRAS G12V FRET IC50
Chain of KRAS G12V (P01116 other isoform, or with tags, fused parts or gaps G12V): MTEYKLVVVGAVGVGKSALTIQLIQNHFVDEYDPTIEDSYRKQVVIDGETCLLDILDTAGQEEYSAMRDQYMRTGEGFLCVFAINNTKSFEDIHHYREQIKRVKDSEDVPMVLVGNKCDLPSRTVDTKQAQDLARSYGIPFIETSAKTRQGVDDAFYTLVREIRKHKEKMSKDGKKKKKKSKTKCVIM
Chain of KRAS G12V (P62937 whole entry): as the sequence (P62937 whole entry) above
Protocol: as §1, §2, §3, §4, §5

[2] = test system: Capan-1 cells (K-Ras G12V); assay: CellTiter-Glo cell viability, Capan-1; assay type: cell-based, human; details: Homo sapiens, CAPAN-1, 120 h, read-out: Capan-1 Cell Viability IC50
Protocol: Note—The following protocol describes a procedure for monitoring cell viability of K-Ras mutant cancer cell lines in response to a compound of the invention. Other RAS isoforms may be employed, though the number of cells to be seeded will vary based on cell line used.
Test compounds (132.5 nl) were directly dispensed into the assay plates containing cells. […] On day 5, assay plates and their contents were equilibrated to room temperature for approximately 30 minutes. […] Luminescence was measured using the PerkinElmer Enspire. Data were normalized by the following: (Sample signal/Avg. DMSO)*100. The data were fit using a four-parameter logistic fit.

[3] = Homo sapiens, NCI-H358 cells, 4 hours

Chain of KRAS G13D (P01116 other isoform, or with tags, fused parts or gaps G13D): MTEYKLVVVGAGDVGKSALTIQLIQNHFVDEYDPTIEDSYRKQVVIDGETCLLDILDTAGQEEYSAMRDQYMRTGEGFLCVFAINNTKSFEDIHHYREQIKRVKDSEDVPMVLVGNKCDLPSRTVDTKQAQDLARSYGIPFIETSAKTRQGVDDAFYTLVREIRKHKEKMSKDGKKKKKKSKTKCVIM
Chain of KRAS G13D (P62937 whole entry): as the sequence (P62937 whole entry) above

Row | Structure (SMILES) | IC50 (KRAS G13D) [µM] | IC50 (NRAS G12C) [µM] | IC50 (KRAS G12S) [µM] | IC50 (KRAS G12D) [µM] | IC50 (KRAS G12V) [µM] | IC50 ([2]; K-Ras G12V, 5-day treatment) [µM] | also measured
1 | CCn1c(-c2cnccc2COC)c2c3cc(ccc31)-c1cc(O)cc(c1)C[C@H](NC(=O)[C@H](C(C)C)N(C)C(=O)[C@H]1CCN(C(C)C)C1)C(=O)N1CCC[C@H](N1)C(=O)OCC(C)(C)C2 [Compound A41] | 0.01 to 0.1 | 0.1 to 1 |  |  |  |  | 
2 | CCn1c(-c2cccnc2COC)c2c3cc(ccc31)-c1cc(O)cc(c1)C[C@H](NC(=O)[C@H](C(C)C)N(C)C(=O)[C@H](N)CCCNC(=N)N)C(=O)N1CCC[C@H](N1)C(=O)OCC(C)(C)C2 [Compound A48] | 0.1 to 1 |  |  |  |  |  | 
3 | CCn1c(-c2cccnc2[C@H](C)OC)c2c3cc(ccc31)-c1cc(O)cc(c1)C[C@H](NC(=O)[C@H](C(C)C)N(C)C(=O)C1CC13CC3)C(=O)N1CCC[C@H](N1)C(=O)OCC(C)(C)C2 (stereo partly drawn) [Compound A156] |  |  |  |  |  |  | IC50 (NCI-H358 (K-Ras G12C); Homo sapiens, NCI-H358, 120 h, 5-day treatment; read-out: H358 Cell Viability assay data (K-Ras G12C, IC50)): 0.01 to 0.1 µM; EC50 [1, 3]: < 5 µM
4 | CCn1c(-c2cccnc2[C@H](C)OC)c2c3cc(ccc31)-c1cc(O)cc(c1)C[C@H](NS(=O)(=O)N1CCC1)C(=O)N1CCC[C@H](N1)C(=O)OCC(C)(C)C2 [Compound A189] | > 10 | > 10 | > 10 | > 10 | > 10 | > 10 | IC50 (KRAS G13C): > 10 µM; IC50 (KRAS WT): > 10 µM
5 | CCn1c(-c2cccnc2[C@H](C)OC)c2c3cc(ccc31)-c1cc(O)cc(c1)C[C@H](NS(=O)(=O)C1CS(=O)(=O)C1)C(=O)N1CCC[C@H](N1)C(=O)OCC(C)(C)C2 [Compound A191] | > 10 | > 10 | > 10 | > 10 | > 10 | > 10 | IC50 (KRAS G13C): > 10 µM; IC50 (KRAS WT): > 10 µM
6 | CCn1c(-c2cccnc2[C@H](C)OC)c2c3cc(ccc31)-c1cc(O)cc(c1)C[C@H](NS(=O)(=O)c1cn(C)c(C)n1)C(=O)N1CCC[C@H](N1)C(=O)OCC(C)(C)C2 [Compound A197] | > 10 |  | > 10 | > 10 | > 10 | > 10 | EC50 [1, 3]: < 5 µM
7 | CC#CC(=O)N1CC[C@H](C(=O)N(C)[C@@H](C(=O)N[C@H]2Cc3cc(O)cc(c3)-c3ccc4c(c3)c(c(-c3cccnc3[C@H](C)OC)n4CC)CC(C)(C)COC(=O)[C@@H]3CCCN(N3)C2=O)C(C)C)C1 [Compound A199] |  |  |  |  |  |  | IC50 (NCI-H358 (K-Ras G12C); read-out: H358 Cell Viability assay data (K-Ras G12C, IC50); 5-day treatment): 0.1 to 1 µM; EC50 ([1]; Homo sapiens, NCI-H358, 4 h): < 5 µM
8 | CCn1c(-c2cccnc2[C@H](C)OC)c2c3cc(ccc31)-c1cc(O)cc(c1)C[C@H](NS(=O)(=O)CC1CC1)C(=O)N1CCC[C@H](N1)C(=O)OCC(C)(C)C2 [Compound A200] | > 10 |  | > 10 | > 10 | > 10 |  | IC50 [2]: 1 to 10 µM
9 | CCn1c(-c2cccnc2[C@H](C)OC)c2c3cc(ccc31)-c1cccc(c1)C[C@H](NC(=O)[C@H](C(C)C)N(C)C(=O)[C@H]1CCN(C(=O)/C=C/CN3CC(OC)C3)C1)C(=O)N1CCC[C@H](N1)C(=O)OCC(C)(C)C2 [Compound A203] |  |  |  |  |  |  | IC50 (NCI-H358 (K-Ras G12C); 5-day treatment; read-out: H358 Cell Viability assay data (K-Ras G12C, IC50)): > 10 µM; EC50 ([1]; NCI-H358 cells, 4 hours): < 5 µM
